Measured values from patent US11000555B2, “Method for preparing a limax compound and therapeutic use thereof” (GUANGXI JIUFU BIOTECHNOLOGY CO., LTD, priority 2017, dated 2021).
Read-outs that look alike come from different tables or passages of the source. Marks after values point to notes of the source that are not given here.

Tests used:
mice [1] = test: Acetic acid writhing test of mice; assay type: in vivo, Kunming mice; conditions: for Times of writhing: 0.6% acetic acid ip, in 20 min
Protocol: Forty Kunming mice, male, were fasted for 12 h before the experiment but free to drink water. They were randomly divided into 4 groups: a blank control group, a low dose Compound group, a high dose Compound group, and a positive control group. […] The mice were administered (ig) at a low dose (0.4 g/kg) and a high dose (0.8 g/kg) of the compound, at a volume of 0.2 ml per 10 g body weight. The positive control group was administered (ip) methadone (20 mg/kg) and the blank control group was given (ig) the same volume of normal saline. Forty-five minutes after administration, each mouse was given (ip) 0.6% acetic acid, 0.2 ml for each. The mice were then observed for writhing reaction, with abdominal contraction and hind limb extension or hip elevation regarded as positive. Times of writhing in 20 min were recorded starting from 5 min after acetic acid injection. The analgesic effect was evaluated by taking completely inhibiting writhing reaction induced by acetic acid as an indicator.

mice [2] = test: Oral acute toxicity test of mice (maximum dose method); assay type: in vivo, Kunming mice; conditions: for Weight after dosing / Weight change: 14 days observation; for Weight before dosing: test group
Protocol: The test group was given 10% the compound, 0.3 ml/10 g per dose, and the control group was given the same volume of vegetable oil. Each group was administered (ig) twice a day at 8:00 and 18:00, respectively, and fasting was completed three hours after the administration (ig). All the mice received the same volume of 0.3 ml/10 g per dose, amounting to 6 g/kg BW over 24 hours. The mice were given free access to water and food after administration. The body weight, food intake, water intake, general physiological indicators, behaviors and activities, psychological status and survival status were recorded for 14 days in consecutive, 3 times a day, after several times of observation within the 24 hours that followed the administration.

mice [3] = test: Morphine-induced hyperexcitability test of mice; assay type: in vivo, Kunming mice
mice [4] = test: Hot plate test of analgesic effect; assay type: in vivo, Kunming mice; conditions: for Pain threshold / Pain threshold before administration: hot plate 55° C.; for Pain threshold before administration: base line
Protocol: Kunming mice, female, were selected. And a selection among them was conducted prior to the test. The hot plate was adjusted to 55° C.±0.5° C., the female mice were placed on the hot plate, and the duration (in seconds) required from placing the mice on the hot plate until the mice licked their feet as the normal pain threshold of the mice. All those who licked their feet within 5 s or after 30 s and jumped were abandoned. Forty qualified mice were selected and randomly divided into 4 groups: a blank control group, a low dose Compound group, a high dose Compound group, and a positive control group, 10 mice per group. The normal pain threshold of each mouse was measured repeatedly, and the average of two measurements was taken as the pre-administration pain threshold of the mouse. Each group was then administered (at doses and by delivery routes as above), 0.2 ml per 10 g body weight. The pain threshold of each group was measured 60 min and 120 min after administration. If a mouse remained unresponsive for more than 60 seconds on the hot plate, its pain threshold was calculated as 60 seconds.

morphine-dependent mice = test: Therapeutic effect on naloxone-induced withdrawal symptoms of morphine-dependent mice; assay type: in vivo, Kunming mice; conditions: for Times of jumping reactions of mice: naloxone 8.0 mg/kg ip
Protocol: The model of morphine-dependent mice was replicated by the dose-increasing method. […] Group (1) was a blank control group, injected subcutaneously (sc) with normal saline (0.2 ml/10 g), and groups (2)˜(5) were used to replicate the model of morphine-dependent mice by the dose-increasing method.
The administration continued for 3 days for each group. Mice were free to drink and eat. Naloxone (8.0 mg/kg, ip) was given 1 h after administrations on d1 and d3 during the treatment to induce withdrawal symptoms, and jumping reaction in 30 min and body weights before and after the inducement were observed.

mice [5] = conditions: mouse, in vivo; for Duration of mice staying in companion box: both, Kunming
Text: A conditioned place preference box was composed of black and white cuboids (30 cm×15 cm×15 cm), a movable partition plate is arranged in the middle of the box body to divide the box into two cuboids of the same volume, and the rat and mice can freely move from one cuboid to another when the partition plate is removed. Inner surfaces of one cuboid of the box body except the glass panel is painted black, the bottom plate is made to be a rough surface by using a soft blanket, the other cuboid of the box body except the glass surface is painted white, the bottom plate is made to be a smooth surface, and the whole experimental box has visual and tactile cues.
Mice were tested for natural preference one day prior to dosing to eliminate mice with significant preference on one side of the box and to exclude the effects of unconditioned place preference on the experimental results.
Each group of animals was administered twice daily at an interval of 8 hours (8:00, 16:00). […] The mice were placed in the white cuboid, which was the non-preferred side, after administration, and placed in the black cuboid, which was the preferred side, after administration of normal saline. The mice were kept in the box for 45 min, trained for 6 days. The place preference test was performed 24 h after the last administration. The partition plate of the preferred cuboid was removed, the mice were placed in the middle of the box one by one and observed for 15 minutes, and the duration of each of the mice staying in each cuboid was recorded on the basis of the positions of their heads.

[6] = single administration 0.4, 0.8 g/kg, ig
[7] = Female, 6 g/kg BW over 24 hours ig
[8] = Male, 6 g/kg BW over 24 hours ig

Structure (SMILES): CC1(C)O[C@H]2CC[C@@]3(C)[C@@H]([C@@H](O)[C@H](O)[C@@H]3[C@@](C)(O)CC[C@@H]3OC(C)(C)[C@H]4CC[C@]3(C)O4)[C@]2(C)CC[C@H]1O [the compound, limaxol A]
- Times of writhing (mice [1]; high dose 0.8 g/kg ig): 39.6 ± 13.21
- Times of writhing (mice [1]; low dose 0.4 g/kg ig): 37.10 ± 15.69
- Analgesic effect, acetic acid writhing test (mice [1]; [6]): no obvious analgesic effect
- Toxic reaction (mice [2]; 6 g/kg BW over 24 hours ig, 14 days of observation): no toxic reaction occurred
- Weight after dosing (mice [2]; [7]): 24.99 ± 1.59 g
- Weight change (mice [2]; [7]): 4.06 ± 2.34 g
- Weight before dosing (mice [2]; Female): 20.93 ± 1.61 g
- Weight after dosing (mice [2]; [8]): 26.60 ± 0.87 g
- Weight change (mice [2]; [8]): 6.13 ± 1.46 g
- Weight before dosing (mice [2]; Male): 20.73 ± 1.79 g
- Visual observation of heart, liver, spleen, lung, kidney (mice [2]; after putting to death, 14 days): no abnormality was found
- Maximum dose as multiple of the daily dose per the same body weight for a human adult (mice [2]; human adult dose 0.02 g/kg): 300 times
- Maximum dose given the mice (mice [2]; ig, twice within 24 hours, no death): 6000 mg/kg
- LD50 (mice [2]; mouse, in vivo, po): could not be detected
- Effect on excitability induced by morphine (mice [3]; 0.4, 0.8 g/kg, ig): inhibit the increase of excitability induced by morphine and amphetamine
- Number of activities, morphine-induced excitability (mice [3]; After administration, high dose 0.8 g/kg ig, morphine 10 mg/kg): 112.7 ± 23.04**^Δ▴▴ Times per min
- Number of activities, morphine-induced excitability (mice [3]; After administration, low dose 0.4 g/kg ig, morphine 10 mg/kg): 102.0 ± 46.29**^Δ▴ Times per min
- Number of activities, morphine-induced excitability (mice [3]; Before administration, high dose group): 185.4 ± 36.93 Times per min
- Number of activities, morphine-induced excitability (mice [3]; Before administration, low dose group): 191.5 ± 35.53 Times per min
- Pain threshold (mice [4]; 60 min, high dose 0.8 g/kg ig): 27.0 ± 11.32 s
- Pain threshold (mice [4]; 60 min, low dose 0.4 g/kg ig): 25.4 ± 10.10 s
- Pain threshold (mice [4]; 120 min, high dose 0.8 g/kg ig): 25.9 ± 12.52 s
- Pain threshold (mice [4]; 120 min, low dose 0.4 g/kg ig): 29.3 ± 13.41 s
- Pain threshold before administration (mice [4]; high dose group): 24.3 ± 5.51 s
- Pain threshold before administration (mice [4]; low dose group): 23.7 ± 4.95 s
- Analgesic effect, hot plate test (mice [4]; [6]): no obvious analgesic effect
- Numbers of jumping reactions of mice (mice of n = 10) (morphine-dependent mice; d 1, high dose 0.8 g/kg ig): 10
- Numbers of jumping reactions of mice, percentage (morphine-dependent mice; d 1, high dose 0.8 g/kg ig): 100%
- Weight change: body weights of mice before and after induced withdrawal (morphine-dependent mice; d 1, high dose 0.8 g/kg ig): 0.26 ± 0.21 g
- Times of jumping reactions of mice (morphine-dependent mice; d 1, high dose 0.8 g/kg ig): 35.0 ± 12.28 per 30 min
- Numbers of jumping reactions of mice (mice of n = 10) (morphine-dependent mice; d 1, low dose 0.4 g/kg ig): 10
- Numbers of jumping reactions of mice, percentage (morphine-dependent mice; d 1, low dose 0.4 g/kg ig): 100%
- Weight change: body weights of mice before and after induced withdrawal (morphine-dependent mice; d 1, low dose 0.4 g/kg ig): 0.18 ± 0.13 g
- Times of jumping reactions of mice (morphine-dependent mice; d 1, low dose 0.4 g/kg ig): 13.5 ± 10.29 per 30 min
- Numbers of jumping reactions of mice (mice of n = 10) (morphine-dependent mice; d 3, high dose 0.8 g/kg ig): 10
- Numbers of jumping reactions of mice, percentage (morphine-dependent mice; d 3, high dose 0.8 g/kg ig): 100%
- Weight change: body weights of mice before and after induced withdrawal (morphine-dependent mice; d 3, high dose 0.8 g/kg ig): 0.43 ± 0.23 g
- Times of jumping reactions of mice (morphine-dependent mice; d 3, high dose 0.8 g/kg ig): 8.5 ± 2.68 per 30 min
- Numbers of jumping reactions of mice (mice of n = 10) (morphine-dependent mice; d 3, low dose 0.4 g/kg ig): 10
- Numbers of jumping reactions of mice, percentage (morphine-dependent mice; d 3, low dose 0.4 g/kg ig): 100%
- Weight change: body weights of mice before and after induced withdrawal (morphine-dependent mice; d 3, low dose 0.4 g/kg ig): 0.36 ± 0.28 g
- Times of jumping reactions of mice (morphine-dependent mice; d 3, low dose 0.4 g/kg ig): 6.2 ± 5.86 per 30 min
- Effect on jumping reaction during induced withdrawal (morphine-dependent mice; ig, 0.4 and 0.8 g/kg): inhibited jumping reaction
- Effect on weight loss of the morphine-dependent mice (morphine-dependent mice; ig, 0.4 and 0.8 g/kg): inhibited weight loss
- Duration of mice staying in companion box (mice [5]): 334.8 ± 94.96 s
- Duration of mice staying in companion box (mice [5]; 6 days): 385.2 ± 188.16 s
- Psychological dependence, place preference test (mice [5]): no tendency of psychological dependence
